Experimental data as given in patent US8981094B2, “Piperidine/piperazine derivatives” (Janssen Pharmaceutica N.V., priority 2007, dated 2015).

Experiments:
[1] = target: T1, human DGAT1 (Homo sapiens, UniProt O75907); assay: Inhibition of DGAT1 activity, FlashPlate assay with DGAT1 membrane preparations and substrate micelles; assay type: biochemical; details: pIC50 = -logIC50, IC50 values expressed in M
T1 construct: FLAG (N); made in house; host or cells: SF9 insect cells (pFastBac baculovirus); total cell membranes
T1 sequence (O75907 1-488): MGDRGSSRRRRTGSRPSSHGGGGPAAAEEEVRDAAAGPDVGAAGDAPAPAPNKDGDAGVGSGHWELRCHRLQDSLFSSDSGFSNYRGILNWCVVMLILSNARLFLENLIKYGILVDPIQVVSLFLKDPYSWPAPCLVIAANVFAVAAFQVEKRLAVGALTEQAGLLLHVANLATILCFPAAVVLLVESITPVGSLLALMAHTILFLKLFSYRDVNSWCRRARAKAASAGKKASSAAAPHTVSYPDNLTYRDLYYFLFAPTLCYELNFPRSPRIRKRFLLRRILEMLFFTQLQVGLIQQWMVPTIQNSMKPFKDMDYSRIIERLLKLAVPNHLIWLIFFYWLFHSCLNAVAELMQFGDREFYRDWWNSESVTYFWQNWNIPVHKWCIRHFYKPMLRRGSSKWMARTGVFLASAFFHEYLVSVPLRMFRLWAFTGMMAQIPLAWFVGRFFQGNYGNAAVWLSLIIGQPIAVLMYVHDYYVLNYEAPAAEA
In short: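 FLAG-tagged human DGAT1 membranes (expressed in Sf9 cells) were incubated 120 min at 37° C. in 50 mM Tris-HCl pH 7.4 with 150 mM MgCl2, 1 mM EDTA, 0.2% BSA, 50 μM DAG micelles (PC/PS) and 8.4 μM [^3H]-oleoylCoA. The reaction was stopped with N-ethylmaleimide and read as FlashPlate radioluminescence. Responses were normalized to enzyme/no-enzyme controls to fit dose-response curves.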

SMILES | IC50 [1] [nM] | melting point [°C]
O=C(CCCc1ccccc1)Nc1ccc(C2CCN(C(=O)Nc3c(Cl)cc(C(=O)O)cc3Cl)CC2)cc1 [Compound 301] | 20.9 | 152 to 153
O=C(CCCc1ccccc1)Nc1ccc(N2CCN(C(=O)Nc3c(F)cc(Br)cc3F)CC2)cc1 [Compound 49] | 120 | 207.9
CCCCCCC(=O)Nc1ccc(N2CCN(C(=O)Nc3c(Cl)cccc3Cl)CC2)cc1 [Compound 8] | 8.91 | 245.1
C=CCN(CC(=O)Nc1ccc(N2CCN(C(=O)Nc3c(Cl)cccc3Cl)CC2)cc1)Cc1ccc(F)cc1 [Compound 51] | 18.2 | 177.8
O=C(CCCc1ccccc1)Nc1ccc(N2CCN(C(=O)Nc3c(Cl)cc(Cl)cc3Cl)CC2)cc1 [Compound 59] | 12.9 | 234.9
C#CCNC(=O)c1ccc(N2CCN(C(=O)Cc3c(Cl)cccc3Cl)CC2)cc1 [Compound 259] | 1350 | 247.07
O=C(CNc1ccccc1)Nc1ccc(N2CCN(C(=O)Nc3c(Cl)cccc3Cl)CC2)cc1 [Compound 21] | 72.4 | 244 to 246
O=C(CCCc1ccccc1)Nc1ccc(N2CCN(C(=O)Nc3c(Cl)cccc3C(F)(F)F)CC2)cc1 [Compound 62] | 16.2 | 254
CC(NCCCN(C)C)c1cc(Cl)c(NC(=O)N2CCN(c3ccc(NC(=O)CCCc4ccccc4)cc3)CC2)c(Cl)c1 (stereo not drawn) [Compound 54] | 23.4 | 125.4
CN(C)CCC(=O)Nc1ccc(N2CCN(C(=O)Nc3c(Cl)cccc3Cl)CC2)cc1 [Compound 196] | 6760 | 194 to 196
CN(Cc1ccccc1)C(=O)c1ccc(N2CCN(C(=O)Nc3c(Cl)cc(CN4CCCC4)cc3Cl)CC2)cc1 [Compound 266] | 6170 | 161.47
O=C(CNc1ccc(F)cc1)Nc1ccc(N2CCN(C(=O)Nc3c(Cl)cccc3Cl)CC2)cc1 [Compound 36] | 87.1 | 254.2
O=C(CNCc1ccc(F)cc1)Nc1ccc(N2CCN(C(=O)Nc3c(Cl)cccc3Cl)CC2)cc1 [Compound 35] | 240 | 169.9
O=C(CNc1ccccc1Cl)Nc1ccc(N2CCN(C(=O)Nc3c(Cl)cccc3Cl)CC2)cc1 [Compound 4] | 2.69 | 247 to 249
O=C(CCCc1ccccc1)Nc1ccc(N2CCN(C(=O)Nc3cc(C(F)(F)F)ccc3Cl)CC2)cc1 [Compound 81] | 3310 | 170.3
O=C(CCCc1ccccc1)Nc1ccc(N2CCN(C(=O)Cc3ccccc3)CC2)cc1 [Compound 338] | 2570 | 146.12
O=C(CCCc1ccccc1)Nc1ccc(N2CCN(C(=O)C(O)c3ccccc3Cl)CC2)cc1 (stereo not drawn) [Compound 19] | 30.9 | 142.3
O=C(CCCc1ccccc1)Nc1ccc(C2CCN(C(=O)Nc3c(Cl)cc(CO)cc3Cl)CC2)cc1 [Compound 276] | 4.27 | 198 to 199
COc1ccc(CC(=O)Nc2ccc(N3CCN(C(=O)Nc4c(Cl)cc(CC[N+](C)(C)C)cc4Cl)CC3)cc2)cc1 [Compound 317] | 63.1 | 248.28
O=C(CCNc1ccccc1Cl)Nc1ccc(N2CCN(C(=O)Nc3c(Cl)cccc3Cl)CC2)cc1 [Compound 289] | 10.2 | 244 to 245
COC(=O)c1cc(Cl)c(NC(=O)N2CCC(c3ccc(NC(=O)CCCc4ccccc4)cc3)CC2)c(Cl)c1 [Compound 324] | 107 | 204 to 205
CC(C)C(=O)N(C)CC(=O)Nc1ccc(N2CCN(C(=O)Nc3c(Cl)cccc3Cl)CC2)cc1 [Compound 166] | 63.1 | 232 to 234

SMILES | IC50 [1] [nM] | melting point [°C]
C=CCN(CC(=O)Nc1ccc(N2CCN(C(=O)Nc3c(Cl)cc(OC)cc3Cl)CC2)cc1)Cc1ccc(C)cc1C [Compound 281] | 7.24 | 149 to 150
O=C(CCCc1ccccc1)Nc1ccc(N2CCN(C(=O)Nc3ccc(F)cc3F)CC2)cc1 [Compound 73] | 457 | 141.2
O=C(CCCc1ccccc1)Nc1ccc(N2CCN(C(=O)Nc3c(Cl)cc(Br)c4c3CCO4)CC2)cc1 [Compound 46] | 331 | 223
O=C(CCC(O)c1ccccc1)Nc1ccc(N2CCN(C(=O)Cc3c(Cl)cccc3Cl)CC2)cc1 (stereo not drawn) [Compound 333] | 355 | 200.57
CC(C)(C)CC(C)(C)NC(=O)N1CCN(c2ccc(NC(=O)CCCc3ccccc3)cc2)CC1 [Compound 85] | 1950 | 202.3
O=C(CCc1ccncc1)Nc1ccc(N2CCN(C(=O)Nc3c(Cl)cccc3Cl)CC2)cc1 [Compound 193] | 339 | 263 to 264
O=C(NCc1ccc(-c2ccccn2)cc1)c1ccc(N2CCN(C(=O)Nc3c(Cl)cc(CN4CCCC4)cc3Cl)CC2)cc1 [Compound 236] | 60.3 | 217.37
CC(C)(C)c1ccccc1NC(=O)N1CCN(c2ccc(NC(=O)CCCc3ccccc3)cc2)CC1 [Compound 89] | 2190 | 227.2
C=CCN(CC(=O)Nc1ccc(N2CCN(C(=O)Nc3c(Cl)cc(OC)cc3OC)CC2)cc1)c1ccc(C)cc1C [Compound 186] | 13.8 | 181 to 182
O=C(CCCC(=O)OCc1ccccc1)Nc1ccc(N2CCN(C(=O)Nc3c(Cl)cc(CN4CCCCC4)cc3Cl)CC2)cc1 [Compound 292] | 10.7 | 180 to 181
COc1ccc(CNCC(=O)Nc2ccc(N3CCN(C(=O)Nc4c(Cl)cccc4Cl)CC3)cc2)cc1 [Compound 177] | 245 | 128 to 129
O=C(CCCc1ccccc1)Nc1ccc(N2CCN(C(=O)Nc3ccccc3Cl)CC2)cc1 [Compound 34] | 145 | 142.1
O=C(CN1CCCC1)Nc1ccc(N2CCN(C(=O)Nc3c(Cl)cccc3Cl)CC2)cc1 [Compound 201] | 1950 | 214 to 216
O=C(Cc1ccsc1)Nc1ccc(C2CCN(C(=O)Nc3c(Cl)cccc3Cl)CC2)cc1 [Compound 132] | 44.7 | –
O=C(CCCc1ccccc1)Nc1ccc(N2CCN(C(=O)C(O)c3ccc(F)c(F)c3)CC2)cc1 (stereo not drawn) [Compound 341] | 3720 | –
COC(=O)CCCC(=O)Nc1ccc(N2CCN(C(=O)Nc3c(Cl)cccc3Cl)CC2)cc1 [Compound 145] | 55 | –
COc1ccc(NC(=O)N2CCN(c3ccc(NC(=O)CCCc4ccccc4)cc3)CC2)c(C)c1 [Compound 65] | 22.9 | –
CC(O)c1cc(Cl)c(NC(=O)N2CCN(c3ccc(NC(=O)CCCc4ccccc4)cc3)CC2)c(Cl)c1 (single isomer, unassigned) [Compound 270] | 2.14 | –
O=C(CNc1ccccc1)Nc1ccc(C2CCN(C(=O)Nc3c(Cl)cccc3Cl)CC2)cc1 [Compound 100] | 87.1 | –
COCC(NC(=O)OC(C)(C)C)C(=O)Nc1ccc(C2CCN(C(=O)Nc3c(Cl)cccc3Cl)CC2)cc1 (stereo not drawn) [Compound 209] | 166 | –
CC(C)CC(NC(=O)OC(C)(C)C)C(=O)Nc1ccc(C2CCN(C(=O)Nc3c(Cl)cccc3Cl)CC2)cc1 (single isomer, unassigned) [Compound 33] | 35.5 | –
